According to ChEMBL document CHEMBL5291721, “A preclinical secondary pharmacology resource illuminates target-adverse drug reaction associations of marketed drugs” (Nat Commun, 2023):

Columns and labels:
[1] = biological target: T1, Alpha-1A adrenergic receptor (Homo sapiens, UniProt P35348); format: functional, cell-based
T1 sequence (P35348 whole entry): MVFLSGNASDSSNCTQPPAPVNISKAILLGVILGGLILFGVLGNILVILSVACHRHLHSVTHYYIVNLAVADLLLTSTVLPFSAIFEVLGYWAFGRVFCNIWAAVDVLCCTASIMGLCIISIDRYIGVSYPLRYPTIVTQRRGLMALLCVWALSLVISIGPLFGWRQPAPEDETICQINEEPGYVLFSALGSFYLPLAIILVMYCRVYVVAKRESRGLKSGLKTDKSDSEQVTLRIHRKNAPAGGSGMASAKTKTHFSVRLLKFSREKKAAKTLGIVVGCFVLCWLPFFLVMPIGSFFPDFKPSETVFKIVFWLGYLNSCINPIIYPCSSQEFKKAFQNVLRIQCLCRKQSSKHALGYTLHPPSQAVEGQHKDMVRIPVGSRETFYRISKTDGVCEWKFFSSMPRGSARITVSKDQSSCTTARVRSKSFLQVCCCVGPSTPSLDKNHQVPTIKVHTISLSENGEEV

Vasopressin V2 receptor = Vasopressin V2 receptor (Homo sapiens, UniProt P30518)
Vasopressin V2 receptor, sequence (P30518 whole entry): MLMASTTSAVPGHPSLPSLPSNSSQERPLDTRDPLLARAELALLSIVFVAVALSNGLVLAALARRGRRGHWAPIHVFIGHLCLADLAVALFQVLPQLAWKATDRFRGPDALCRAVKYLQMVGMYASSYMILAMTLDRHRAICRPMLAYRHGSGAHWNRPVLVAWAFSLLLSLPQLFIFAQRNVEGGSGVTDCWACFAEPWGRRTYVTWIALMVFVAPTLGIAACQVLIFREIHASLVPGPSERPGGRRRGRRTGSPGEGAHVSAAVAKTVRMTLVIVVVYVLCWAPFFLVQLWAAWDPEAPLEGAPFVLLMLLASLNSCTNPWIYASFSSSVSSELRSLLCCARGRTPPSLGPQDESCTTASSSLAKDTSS

[2] = biological target: T2, Muscarinic acetylcholine receptor M2 (Homo sapiens, UniProt P08172); format: functional, cell-based
T2 sequence (P08172 whole entry): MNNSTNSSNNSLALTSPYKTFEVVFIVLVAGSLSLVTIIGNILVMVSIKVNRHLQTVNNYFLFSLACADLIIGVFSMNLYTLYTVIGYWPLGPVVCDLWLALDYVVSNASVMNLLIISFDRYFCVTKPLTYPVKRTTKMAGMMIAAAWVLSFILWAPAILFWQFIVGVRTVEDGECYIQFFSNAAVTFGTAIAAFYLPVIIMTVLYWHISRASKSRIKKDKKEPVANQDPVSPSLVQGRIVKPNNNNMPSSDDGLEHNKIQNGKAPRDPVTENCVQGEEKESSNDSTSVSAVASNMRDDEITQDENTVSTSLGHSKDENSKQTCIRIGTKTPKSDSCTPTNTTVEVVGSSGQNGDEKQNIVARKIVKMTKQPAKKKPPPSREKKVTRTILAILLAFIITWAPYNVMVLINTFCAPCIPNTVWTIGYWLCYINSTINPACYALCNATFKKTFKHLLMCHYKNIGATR

Estrogen receptor = biological target: T3, Estrogen receptor (Homo sapiens, UniProt P03372)
T3 sequence (P03372 whole entry): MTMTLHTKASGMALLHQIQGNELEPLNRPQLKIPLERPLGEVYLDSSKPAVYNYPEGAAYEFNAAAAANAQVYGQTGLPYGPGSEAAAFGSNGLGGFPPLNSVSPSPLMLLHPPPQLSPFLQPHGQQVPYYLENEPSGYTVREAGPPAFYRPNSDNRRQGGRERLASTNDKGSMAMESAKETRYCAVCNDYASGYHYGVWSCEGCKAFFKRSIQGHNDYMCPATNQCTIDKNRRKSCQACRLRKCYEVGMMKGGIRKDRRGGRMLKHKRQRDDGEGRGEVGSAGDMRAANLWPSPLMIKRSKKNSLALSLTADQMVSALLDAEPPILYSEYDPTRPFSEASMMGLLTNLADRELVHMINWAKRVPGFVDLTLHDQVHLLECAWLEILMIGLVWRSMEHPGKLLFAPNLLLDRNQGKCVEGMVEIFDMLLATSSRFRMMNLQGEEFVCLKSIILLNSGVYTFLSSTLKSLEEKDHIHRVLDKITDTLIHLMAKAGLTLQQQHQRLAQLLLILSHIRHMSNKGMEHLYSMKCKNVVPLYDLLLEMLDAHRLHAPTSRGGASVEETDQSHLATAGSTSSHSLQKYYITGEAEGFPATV

[3] = biological target: Voltage-gated inwardly rectifying potassium channel KCNH2 (Homo sapiens, UniProt Q12809); format: functional; details: read-out: AC50
Voltage-gated inwardly rectifying potassium channel KCNH2, sequence (Q12809 whole entry): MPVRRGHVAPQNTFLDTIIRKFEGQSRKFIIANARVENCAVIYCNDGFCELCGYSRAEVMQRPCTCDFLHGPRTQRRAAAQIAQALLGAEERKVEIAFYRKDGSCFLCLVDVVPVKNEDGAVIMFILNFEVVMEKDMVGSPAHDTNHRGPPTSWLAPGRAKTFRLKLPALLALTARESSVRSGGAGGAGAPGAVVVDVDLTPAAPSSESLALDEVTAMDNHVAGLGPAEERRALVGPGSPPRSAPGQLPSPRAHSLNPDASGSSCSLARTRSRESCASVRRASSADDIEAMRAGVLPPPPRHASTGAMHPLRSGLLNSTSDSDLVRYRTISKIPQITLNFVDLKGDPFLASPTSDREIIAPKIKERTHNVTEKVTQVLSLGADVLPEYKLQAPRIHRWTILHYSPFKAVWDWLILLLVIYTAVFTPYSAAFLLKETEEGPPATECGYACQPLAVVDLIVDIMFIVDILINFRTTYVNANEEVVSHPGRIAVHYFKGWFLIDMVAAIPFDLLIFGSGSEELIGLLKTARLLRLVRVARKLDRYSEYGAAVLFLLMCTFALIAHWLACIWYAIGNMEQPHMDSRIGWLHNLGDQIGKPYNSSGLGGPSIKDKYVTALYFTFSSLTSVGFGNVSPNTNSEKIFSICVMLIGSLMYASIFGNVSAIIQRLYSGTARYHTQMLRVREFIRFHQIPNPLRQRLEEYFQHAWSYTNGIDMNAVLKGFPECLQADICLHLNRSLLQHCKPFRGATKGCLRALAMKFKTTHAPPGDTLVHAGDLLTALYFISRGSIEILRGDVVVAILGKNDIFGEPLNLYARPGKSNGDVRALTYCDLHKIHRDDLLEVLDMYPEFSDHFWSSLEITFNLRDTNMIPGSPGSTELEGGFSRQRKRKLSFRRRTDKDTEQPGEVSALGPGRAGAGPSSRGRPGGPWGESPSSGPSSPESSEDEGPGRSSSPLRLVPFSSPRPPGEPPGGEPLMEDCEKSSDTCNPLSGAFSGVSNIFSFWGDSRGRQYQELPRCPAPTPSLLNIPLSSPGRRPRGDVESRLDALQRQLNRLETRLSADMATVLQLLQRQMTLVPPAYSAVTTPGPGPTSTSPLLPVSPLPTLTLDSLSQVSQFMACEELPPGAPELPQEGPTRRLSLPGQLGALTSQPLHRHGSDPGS

[4] = biological target: Delta-type opioid receptor (Homo sapiens, UniProt P41143)
Delta-type opioid receptor, sequence (P41143 whole entry): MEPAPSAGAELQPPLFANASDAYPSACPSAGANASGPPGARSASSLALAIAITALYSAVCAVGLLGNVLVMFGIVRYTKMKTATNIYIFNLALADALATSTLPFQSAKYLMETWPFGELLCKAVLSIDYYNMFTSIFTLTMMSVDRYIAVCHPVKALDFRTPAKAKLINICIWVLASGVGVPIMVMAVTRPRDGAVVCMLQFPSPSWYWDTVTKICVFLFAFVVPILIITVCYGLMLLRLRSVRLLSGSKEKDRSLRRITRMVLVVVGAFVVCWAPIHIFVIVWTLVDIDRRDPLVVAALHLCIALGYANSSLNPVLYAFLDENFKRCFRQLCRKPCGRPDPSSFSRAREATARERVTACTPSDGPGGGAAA

Progesterone receptor = biological target: T4, Progesterone receptor (Homo sapiens, UniProt P06401); format: functional
T4 sequence (P06401 whole entry): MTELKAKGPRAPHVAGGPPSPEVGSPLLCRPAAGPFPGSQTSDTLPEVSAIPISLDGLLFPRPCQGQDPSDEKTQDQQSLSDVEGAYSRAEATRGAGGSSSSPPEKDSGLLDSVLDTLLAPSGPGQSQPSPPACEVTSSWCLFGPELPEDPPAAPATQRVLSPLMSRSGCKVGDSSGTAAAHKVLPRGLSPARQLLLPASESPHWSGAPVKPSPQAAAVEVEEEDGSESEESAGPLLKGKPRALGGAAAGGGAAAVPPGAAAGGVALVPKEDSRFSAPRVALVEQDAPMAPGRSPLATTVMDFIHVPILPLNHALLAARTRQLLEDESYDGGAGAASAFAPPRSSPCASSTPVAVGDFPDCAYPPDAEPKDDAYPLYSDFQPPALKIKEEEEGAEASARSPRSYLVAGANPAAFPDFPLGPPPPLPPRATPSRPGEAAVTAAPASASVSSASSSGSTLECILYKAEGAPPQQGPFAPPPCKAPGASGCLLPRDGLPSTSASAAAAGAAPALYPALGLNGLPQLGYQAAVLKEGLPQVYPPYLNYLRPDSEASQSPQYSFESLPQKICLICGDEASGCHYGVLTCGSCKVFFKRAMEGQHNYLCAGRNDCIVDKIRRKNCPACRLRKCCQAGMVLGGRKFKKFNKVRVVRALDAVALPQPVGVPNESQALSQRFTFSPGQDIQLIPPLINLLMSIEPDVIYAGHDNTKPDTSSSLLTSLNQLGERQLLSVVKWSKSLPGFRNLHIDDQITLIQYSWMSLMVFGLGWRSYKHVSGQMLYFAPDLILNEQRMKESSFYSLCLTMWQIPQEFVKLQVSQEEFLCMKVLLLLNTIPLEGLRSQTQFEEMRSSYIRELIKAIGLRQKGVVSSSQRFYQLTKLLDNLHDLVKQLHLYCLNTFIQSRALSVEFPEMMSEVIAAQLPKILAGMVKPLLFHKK
Also: assay procedure not described here.

Which AC50 [1] does the source give for `Clc1ccc(CCCOCCCN2CCCCC2)cc1` [PITOLISANT] here?
Its AC50 is > 30 µM.

And the AC50 (Vasopressin V2 receptor)?
The AC50 was > 30 µM.

And the AC50 [2]?
Its AC50 is 15 µM.

And the AC50 (Estrogen receptor)?
Its AC50 is > 30 µM.

And the AC50 [3]?
Its AC50 is 1.7 µM.

What about the AC50 [4] of the same molecule?
Its AC50 is > 30 µM.

And the AC50 (Progesterone receptor)?
Its AC50 is > 30 µM.

Which results are given for `Cc1ccc(-n2nccn2)c(C(=O)N2CCN(c3nc4cc(Cl)ccc4o3)CC[C@H]2C)c1` [SUVOREXANT]?
AC50 [1]: > 30 µM; AC50 (Vasopressin V2 receptor): > 30 µM; AC50 [2]: > 30 µM; AC50 (Estrogen receptor): > 30 µM; AC50 [3]: 22 µM; AC50 [4]: > 30 µM; AC50 (Progesterone receptor): > 30 µM

With `COc1cc2c(N)nc(N3CCN(C(=O)OCC(C)(C)O)CC3)nc2c(OC)c1OC` [TRIMAZOSIN] as the molecule, how does the AC50 [1] read?
The AC50 was > 30 µM.

And the AC50 (Vasopressin V2 receptor)?
Its AC50 is > 30 µM.

What about the AC50 [2] of the same molecule?
Its AC50 is > 30 µM.

What about the AC50 (Estrogen receptor) of the same molecule?
Its AC50 is > 30 µM.

And the AC50 [3]?
Its AC50 is 17 µM.

And the AC50 [4]?
The AC50 was > 30 µM.

And the AC50 (Progesterone receptor)?
Its AC50 is > 30 µM.

For `CC(=O)O[C@H]1C[C@@H]2CC[C@@H]3[C@H](CC[C@@]4(C)[C@H]3C[C@H]([N+]3(C)CCCCC3)[C@@H]4OC(C)=O)[C@@]2(C)C[C@@H]1N1CCCCC1` [VECURONIUM], which AC50 [1] is on record?
Its AC50 is > 30 µM.

And the AC50 (Vasopressin V2 receptor)?
The AC50 was > 30 µM.

What about the AC50 [2] of the same molecule?
The AC50 was > 30 µM.

What about the AC50 (Estrogen receptor) of the same molecule?
The AC50 was > 30 µM.

And the AC50 [3]?
The AC50 was 10.4 µM.

What about the AC50 [4] of the same molecule?
Its AC50 is > 30 µM.

What about the AC50 (Progesterone receptor) of the same molecule?
Its AC50 is > 30 µM.

How did the AC50 [1] turn out when `C=CCN1CCCC1CNC(=O)c1cc(S(N)(=O)=O)cc(OC)c1OC` (stereo not given) [VERALIPRIDE] was run?
The AC50 was > 30 µM.

And the AC50 (Vasopressin V2 receptor)?
Its AC50 is > 30 µM.

And the AC50 [2]?
Its AC50 is > 30 µM.

And the AC50 (Estrogen receptor)?
Its AC50 is > 30 µM.

And the AC50 [3]?
The AC50 was 7.6 µM.

And the AC50 [4]?
Its AC50 is > 30 µM.

And the AC50 (Progesterone receptor)?
Its AC50 is > 30 µM.
